Experimental data reported in patent US9801850B2, “Antibacterial agent” (OSAKA UNIVERSITY, priority 2009, dated 2017).
In brackets after ≈: the same amount, converted by molar mass.

Experiments:
[1] = tested on: Methicillin-susceptible Staphylococcus aureus (MSSA) NCTC8325; assay: MIC, broth microdilution (Example 1); format: cell-based; settings: MH-broth, 37° C., 18 hours
Description: (§1) Methicillin-susceptible Staphylococcus aureus (MSSA) NCTC8325 and methicillin-resistant Staphylococcus aureus (MRSA) ATCC43300 were used as bacteria. The bacteria of each type were cultured using Mueller-Hinton Broth (MH-broth, Difco) as a medium. Then, the minimum inhibitory concentration (MIC) of each of the EGCG derivatives was measured by a broth microdilution method in accordance with the Clinical and Laboratory Standards Institute (CLSI) guidelines (hereinafter the same).
(§2) First, each of the EGCG derivatives was dissolved in 100% dimethyl sulfoxide (DMSO, Wako Pure Chemical Industries, Ltd.) so that the concentration thereof became 5120 μg/ml. The resultant solution was diluted with DMSO or sterile distilled water so as to prepare two-fold dilution series of antibacterial agent solutions. […] Each of these antibacterial agent solutions was dispensed to wells of a 96-well plate. The concentration of the EGCG derivative in the antibacterial agent solution dispensed to the wells was set to be 10 times as high as the final concentration. On the other hand, the bacteria were cultured in the MH-broth at 37° C. overnight, and the thus-obtained pre-culture solution was diluted with a new MH-broth so that the concentration thereof in the MH-broth became 10^−4 (10^4-fold dilution), thus preparing a bacterial culture solution of about 1×10^5 CFU/ml (CFU: Colony Forming Unit, the number of viable cells). The bacterial culture solution was further added to each well, and the mixture was cultured at 37° C. for 18 hours. The ratio (volume ratio) between the antibacterial agent solution and the bacterial culture solution added to each well was set to 1:9 (the antibacterial agent solution:the bacterial culture solution), and the volume of the mixture of them per well was set to 100 μl in total. The final concentration of the EGCG derivative in the mixture was set to 8 μg/ml to 512 μg/ml, and the number of viable cells in the mixture was set to about 1×10^5 CFU/ml. Then, after the completion of the culture, the MIC was determined. Also, the turbidity (OD600 nm) was measured using a plate reader so as to identify minor differences.
(§3) As Comparative Example 1, the same procedures as in Example 1 were performed, except that unsubstituted EGCG was used as an antibacterial agent instead of the EGCG derivatives of Example 1. Furthermore, as a control, the same procedures as in Example 1 were performed, except that sterile distilled water, 100% DMSO, or 50% DMSO was used instead of the antibacterial agent solutions containing the EGCG derivatives.

[2] = tested on: methicillin-resistant Staphylococcus aureus (MRSA) ATCC43300; assay: MIC, broth microdilution (Example 1); format: cell-based; settings: for MIC: MRSA ATCC43300, MH-broth, 37° C., 18 hours
Description: as §1, §2, §3

MRSA ATCC43300 [3] = assay: MIC with addition of PG, LPS or D-Ala-D-Ala (Example 3); format: cell-based, Staphylococcus aureus; settings: for MIC: MRSA (ATCC43300); for change in MIC by the addition of PG: MRSA ATCC43300, PG 30 μg/ml
Description: (§4) Regarding EGCG-C16, whether or not the antibacterial action thereof against MSSA and MRSA is inhibited by the addition of: peptidoglycan (PG) or D-Ala-D-Ala, which are each a cell wall component; or lipopolysaccharide (LPS), which is an outer membrane component, was examined. The MIC measurement was carried out in the manner described in Section (2) of Example 2.
(§5) In Example 3, EGCG-C16 prepared in Example 1 was used as an antibacterial agent. In Comparative Example 3, unsubstituted EGCG was used as an antibacterial agent. […] Antibacterial agent solutions of EGCG-C16 and EGCG were prepared in the same manner as described in Section (2) of Example 1. Antibacterial agent solutions of the antibacterial agents other than EGCG-C16 and EGCG were prepared by dissolving them in PBS.
(§6) As additives, PG (Peptidoglycan Staphylococcus aureus, SIGMA-ALDRICH), D-Ala-D-Ala (SIGMA-ALDRICH), and LPS (Lipopolysaccharide Salmonella, SIGMA-ALDRICH) were provided. Each of the additives was dissolved in PBS, and the resultant solution was used as an additive solution.
(§7) Dilution series of the antibacterial agent solutions were prepared. Each of them was dispensed to a 96-well plate. Further, the additive solution was added thereto and mixed. After that, a bacterial culture solution of MRSA ATCC43300 or MSSA ATCC25923 was added thereto and cultured at 37° C. for 18 hours. In the mixture of the antibacterial agent solution, the additive solution, and the bacterial culture solution, the final concentrations of PG, D-Ala-D-Ala, and LPS were each set to 30 μg/ml. Unless otherwise stated, the minimum inhibitory concentration (MIC) was calculated in the same manner as described in Section (2) of Example 2.

MSSA ATCC25923 [4] = assay: as above; format: cell-based, Staphylococcus aureus; settings: for MIC: MSSA (ATCC25923); for change in MIC by the addition of PG: MSSA ATCC25923, PG 30 μg/ml
Description: as §4, §5, §6, §7

MSSA ATCC25923 [5] = assay: Membrane damaging properties, SYTOX Green fluorescence (Example 4); format: cell-based, Staphylococcus aureus; settings: 37° C., 15 minutes, EGCG derivative 4-32, EGCG 8-128, NISIN 1-8 μg/ml, FIG. 3
Description: (§8) As an antibacterial agent, the EGCG-C16 prepared in Example 1 was used in Example 4; EGCG was used in Comparative Example 4; and membrane-damaging peptide NISIN (MP Biomedicals) was used in a reference example. Antibacterial agent solutions of EGCG-C16 and EGCG were prepared by dissolving them in DMSO so as to achieve top concentrations, respectively. An antibacterial agent solution of the other antibacterial agent was prepared by dissolving it in PBS and diluted with PBS as appropriate. The influence of DMSO used for dissolving the antibacterial agents also was considered.
MSSA ATCC25923 and MRSA ATCC43300 were subjected to shaking culture in MH-broths (Difco) until they reached a late stage in the exponential growth phase. The thus-obtained culture solutions were each centrifuged at 7000 rpm for 10 minutes, and bacterial cells that had settled were suspended in PBS. The suspension of the bacterial cells was added to wells of a 384 black plate, and each of the antibacterial agent solutions was further added thereto and mixed. The resultant mixture was incubated at 37° C. for 15 minutes. Subsequently, a dead cell-staining dye (trade name “SYTOX Green”, LONZA) was mixed in each well so that the concentration thereof became 10 μmol/l, and the resultant mixture was incubated at 37° C. for 10 minutes. […] On the other hand, as a control, the fluorescence intensity was measured in the same manner, except that PBS or 10% DMSO was added instead of the antibacterial agent solutions. Then, regarding each of the MSSA and MRSA, the ratio of the fluorescence intensity when each of the agents was added was calculated assuming that the fluorescence intensity obtained in the control (PBS) was 1.

MRSA ATCC43300 [6] = assay: as above; format: cell-based, Staphylococcus aureus; settings: 37° C., 15 minutes, EGCG derivative 4-32, EGCG 8-128, NISIN 1-8 μg/ml, FIG. 3
Description: as §8
MSSA ATCC25923 and MRSA ATCC43300 were subjected to shaking culture in MH-broths (Difco) until they reached a late stage in the exponential growth phase. The thus-obtained culture solutions were each centrifuged at 7000 rpm for 10 minutes, and bacterial cells that had settled were suspended in PBS. The suspension of the bacterial cells was added to wells of a 384 black plate, and each of the antibacterial agent solutions was further added thereto and mixed. The resultant mixture was incubated at 37° C. for 15 minutes. Subsequently, a dead cell-staining dye (trade name “SYTOX Green”, LONZA) was mixed in each well so that the concentration thereof became 10 μmol/l, and the resultant mixture was incubated at 37° C. for 10 minutes. The final concentrations of the respective antibacterial agents were as follows: 4, 8, 16, and 32 μg/ml for the EGCG derivative; 8, 16, 32, 64, and 128 μg/ml for EGCG; and 1, 2, 4, and 8 μg/ml for NISIN. […] On the other hand, as a control, the fluorescence intensity was measured in the same manner, except that PBS or 10% DMSO was added instead of the antibacterial agent solutions. Then, regarding each of the MSSA and MRSA, the ratio of the fluorescence intensity when each of the agents was added was calculated assuming that the fluorescence intensity obtained in the control (PBS) was 1.

[7] = +D-Ala-D-Ala (30 μg/mL), lower part of Table 9
[8] = +LPS (30 μg/mL), upper part of Table 9
[9] = +PG (30 μg/mL), lower part of Table 9 (PG/D-Ala-D-Ala series)
[10] = +PG (30 μg/mL), upper part of Table 9 (PG/LPS series)
[11] = MH-broth free of additives, lower part of Table 9 (PG/D-Ala-D-Ala series)
[12] = MH-broth free of additives, upper part of Table 9 (PG/LPS series)

Compound: EGCG-laurate [EGCG-C12]
- MIC [1]: 8 µg/mL
- MIC [2]: 16 µg/mL
- inhibition of propagation (MIC, turbidity OD600 nm) ([2]; MRSA, FIG. 1 and Table 3): remarkable propagation-inhibiting effect

Compound: CN[C@H](CC(C)C)C(=O)N[C@H]1C(=O)N[C@@H](CC(N)=O)C(=O)N[C@H]2C(=O)N[C@H]3C(=O)N[C@H](C(=O)N[C@H](C(=O)O)c4cc(O)cc(O)c4-c4cc3ccc4O)[C@H](O)c3ccc(c(Cl)c3)Oc3cc2cc(c3O[C@@H]2O[C@H](CO)[C@@H](O)[C@H](O)[C@H]2O[C@H]2C[C@](C)(N)[C@H](O)[C@H](C)O2)Oc2ccc(cc2Cl)[C@H]1O [VCM, vancomycin]
- MIC (MRSA ATCC43300 [3]; [7]): 16 µg/mL (≈ 11 µM)
- MIC (MRSA ATCC43300 [3]; [8]): 2 µg/mL (≈ 1.38 µM)
- MIC (MRSA ATCC43300 [3]; [9]): 2 µg/mL (≈ 1.38 µM)
- MIC (MRSA ATCC43300 [3]; [10]): 4 µg/mL (≈ 2.76 µM)
- MIC (MRSA ATCC43300 [3]; [11]): 1 µg/mL (≈ 0.69 µM)
- MIC (MRSA ATCC43300 [3]; [12]): 2 µg/mL (≈ 1.38 µM)
- change in MIC by the addition of PG (MRSA ATCC43300 [3]): doubled
- MIC (MSSA ATCC25923 [4]; [7]): 16 µg/mL (≈ 11 µM)
- MIC (MSSA ATCC25923 [4]; [8]): 2 µg/mL (≈ 1.38 µM)
- MIC (MSSA ATCC25923 [4]; [9]): 2 µg/mL (≈ 1.38 µM)
- MIC (MSSA ATCC25923 [4]; [10]): 4 µg/mL (≈ 2.76 µM)
- MIC (MSSA ATCC25923 [4]; [11]): 1 µg/mL (≈ 0.69 µM)
- MIC (MSSA ATCC25923 [4]; [12]): 2 µg/mL (≈ 1.38 µM)
- change in MIC by the addition of PG (MSSA ATCC25923 [4]): doubled

Compound: EGCG-octanonate [EGCG-C8]
- MIC [1]: 8 µg/mL

Compound: teicoplanin
- MIC (MRSA ATCC43300 [3]; [7]): 16 µg/mL
- MIC (MRSA ATCC43300 [3]; [8]): 1 µg/mL
- MIC (MRSA ATCC43300 [3]; [9]): 1 µg/mL
- MIC (MRSA ATCC43300 [3]; [10]): 1 µg/mL
- MIC (MRSA ATCC43300 [3]; [11]): 0.5 µg/mL
- MIC (MRSA ATCC43300 [3]; [12]): 0.5 µg/mL
- change in MIC by the addition of PG (MRSA ATCC43300 [3]): doubled
- MIC (MSSA ATCC25923 [4]; [7]): 32 µg/mL
- MIC (MSSA ATCC25923 [4]; [8]): 1 µg/mL
- MIC (MSSA ATCC25923 [4]; [9]): 2 µg/mL
- MIC (MSSA ATCC25923 [4]; [10]): 2 µg/mL
- MIC (MSSA ATCC25923 [4]; [11]): 1 µg/mL
- MIC (MSSA ATCC25923 [4]; [12]): 1 µg/mL
- change in MIC by the addition of PG (MSSA ATCC25923 [4]): doubled

Compound: CC1(C)S[C@@H]2[C@H](NC(=O)[C@H](N)c3ccccc3)C(=O)N2[C@H]1C(=O)O [ABPC, ampicillin]
- MIC (MRSA ATCC43300 [3]; [7]): 16 µg/mL (≈ 45.8 µM)
- MIC (MRSA ATCC43300 [3]; [8]): 32 µg/mL (≈ 91.6 µM)
- MIC (MRSA ATCC43300 [3]; [9]): 8 µg/mL (≈ 22.9 µM)
- MIC (MRSA ATCC43300 [3]; [10]): 32 µg/mL (≈ 91.6 µM)
- MIC (MRSA ATCC43300 [3]; [11]): 16 µg/mL (≈ 45.8 µM)
- MIC (MRSA ATCC43300 [3]; [12]): 32 µg/mL (≈ 91.6 µM)
- MIC (MSSA ATCC25923 [4]; [7]): 0.25 µg/mL (≈ 0.715 µM)
- MIC (MSSA ATCC25923 [4]; [8]): 0.25 µg/mL (≈ 0.715 µM)
- MIC (MSSA ATCC25923 [4]; [9]): 0.25 µg/mL (≈ 0.715 µM)
- MIC (MSSA ATCC25923 [4]; [11]): 0.25 µg/mL (≈ 0.715 µM)
- MIC (MSSA ATCC25923 [4]; [12]): 0.25 µg/mL (≈ 0.715 µM)

Compound: EGCG-eicosanoate [EGCG-C20]
- MIC [2]: 128 µg/mL

Compound: NISIN [reference compound]
- fluorescence intensity ratio of SYTOX Green (control PBS = 1) (MSSA ATCC25923 [5]): very high fluorescence intensity ratio
- fluorescence intensity ratio of SYTOX Green (control PBS = 1) (MRSA ATCC43300 [6]): very high fluorescence intensity ratio
